We go through 19 molecules from BindingDB's records for patent US11814367 (Maze Therapeutics, 2023).

Experiment [1] concerns the target T1, Glycogen [starch] synthase, muscle (Homo sapiens, UniProt P13807).
T1 sequence (P13807 whole entry): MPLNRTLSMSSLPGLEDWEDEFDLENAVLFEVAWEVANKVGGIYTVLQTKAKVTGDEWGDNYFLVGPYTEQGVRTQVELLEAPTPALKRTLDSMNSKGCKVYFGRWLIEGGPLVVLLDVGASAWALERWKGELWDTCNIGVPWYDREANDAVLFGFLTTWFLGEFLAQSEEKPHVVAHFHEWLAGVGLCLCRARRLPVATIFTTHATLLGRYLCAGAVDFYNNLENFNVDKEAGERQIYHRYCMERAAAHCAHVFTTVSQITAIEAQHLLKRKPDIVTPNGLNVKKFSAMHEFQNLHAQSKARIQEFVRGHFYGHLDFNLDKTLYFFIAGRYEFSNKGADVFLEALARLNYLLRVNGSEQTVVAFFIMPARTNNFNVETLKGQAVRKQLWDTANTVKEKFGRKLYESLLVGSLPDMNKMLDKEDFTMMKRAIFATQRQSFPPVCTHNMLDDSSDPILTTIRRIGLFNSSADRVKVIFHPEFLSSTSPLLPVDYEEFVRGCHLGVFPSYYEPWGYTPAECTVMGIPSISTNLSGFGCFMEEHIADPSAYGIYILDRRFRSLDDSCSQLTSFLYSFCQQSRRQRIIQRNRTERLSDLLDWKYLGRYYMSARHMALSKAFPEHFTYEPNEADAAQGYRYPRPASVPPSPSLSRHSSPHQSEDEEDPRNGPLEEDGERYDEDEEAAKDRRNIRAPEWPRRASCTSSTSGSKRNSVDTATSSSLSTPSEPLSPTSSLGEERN
The experiment can be described thus: Kinetic Biochemical Assay. The protocol:
The Assay Buffer contained 50 mM Tris pH 7.5, 2 mM MgCl2, and 100 mM KCl. Fresh stocks of BSA at a final concentration of 0.02% and TCEP at 1 mM were added before splitting buffer into hGYS1 buffer and substrate buffer. To the hGYS1 buffer, rabbit liver glycogen was added at a final concentration of 0.2% glycogen. Glucose-6-Phosphate was added at 1 mM, recombinant hGYS1/GN1 protein was added at 50 nM to the substrate buffer, phosphoenolpyruvate (PEP) was added at 2 mM, UDP-Glucose was added at 0.8 mM, NADH) was added at 0.6 mM, and Pyruvate Kinase/Lactate Dehydrogenase was added at 20 units/mL. The reaction was initiated by mixing hGYS1 buffer and substrate buffer at a 1:1 ratio. Both buffers were plated using a liquid dispensing device with hGYS1 buffer plated first followed by the substrate buffer. Plates were spun briefly to eliminate air bubbles and are immediately read in continuous mode at an absorbance of 340 nm, for 10 time points in one-minute increments, for a total of 10 minutes. The slope from these 10 time points was normalized to the positive and negative control wells.

The target in experiment [2] is T2, Glycogen [starch] synthase, liver (Homo sapiens, UniProt P54840).
T2 sequence (P54840 whole entry): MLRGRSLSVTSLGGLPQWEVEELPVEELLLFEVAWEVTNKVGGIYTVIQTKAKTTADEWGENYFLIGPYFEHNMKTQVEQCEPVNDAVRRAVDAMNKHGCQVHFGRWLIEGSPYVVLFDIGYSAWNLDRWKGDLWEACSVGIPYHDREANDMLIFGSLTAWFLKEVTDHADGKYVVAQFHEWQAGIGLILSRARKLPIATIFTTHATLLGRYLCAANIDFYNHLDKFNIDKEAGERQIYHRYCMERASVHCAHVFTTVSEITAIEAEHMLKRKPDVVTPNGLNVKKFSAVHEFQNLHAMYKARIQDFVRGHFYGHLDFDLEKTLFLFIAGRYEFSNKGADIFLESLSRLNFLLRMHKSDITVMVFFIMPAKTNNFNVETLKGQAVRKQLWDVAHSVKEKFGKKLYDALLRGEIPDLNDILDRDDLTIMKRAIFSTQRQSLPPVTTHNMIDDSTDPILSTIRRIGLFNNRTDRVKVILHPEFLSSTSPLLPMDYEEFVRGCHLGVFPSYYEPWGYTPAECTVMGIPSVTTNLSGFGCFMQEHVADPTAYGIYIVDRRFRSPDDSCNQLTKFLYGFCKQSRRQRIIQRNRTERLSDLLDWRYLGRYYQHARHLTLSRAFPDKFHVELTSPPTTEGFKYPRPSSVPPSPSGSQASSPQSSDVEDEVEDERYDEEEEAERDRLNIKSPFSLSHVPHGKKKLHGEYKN
Kind of experiment: The GYS2 coupled enzyme assay. The protocol:
Compounds that inhibit the hGYS2 enzyme and, subsequently, the downstream conversion of NADH to NAD+, were tested using assay ready plates (black, clear bottom 384 well plates) in a final DMSO reaction volume of 2.5% DMSO. The Assay Buffer contained 50 mM Tris pH 7.5, 2 mM MgCl2, and 100 mM KCl. Fresh stocks of BSA at a final concentration of 0.02% and TCEP 1 mM were added before splitting buffer into hGYS2 buffer and substrate buffer. To the hGYS2 buffer, rabbit liver glycogen was added at a final concentration of 0.2% glycogen. Glucose-6-Phosphate was added at 2 mM, recombinant hGYS2/GN1 protein was added at 200 nM to the substrate buffer, phosphoenolpyruvate (PEP) was added at 2 mM, UDP-Glucose was added at 2 mM, NADH was added at 0.6 mM, and Pyruvate Kinase/Lactate Dehydrogenase was added at 20 units/mL. The reaction was initiated by mixing hGYS2 buffer and substrate buffer at a 1:1 ratio. Both buffers were plated using a liquid dispensing device with hGYS2 buffer plated first followed by the substrate buffer. Plates were spun briefly to eliminate air bubbles and are immediately read in continuous mode at an absorbance of 340 nm, for 10 time points in one-minute increments, for a total of 10 minutes. The slope from these 10 time points was normalized to the positive and negative control wells. The duplicate % inhibition values are then averaged and fit to a Hill equation for dose response according to the Levenberg-Marquardt algorithm with the Hill equation maximum set to 100 and the minimum set to 0.The results are shown in Table 4 below

As to `CC(=O)N1C[C@H](F)C[C@H]1C(=O)NC(c1ccc(C(C)C)cc1)c1ccccc1N` (single isomer, unassigned) [US11814367, Compound 642], the concentration for half-maximal inhibition (IC50) in experiment [1] was 1.33 µM; in experiment [2], more than 100 µM.
In experiment [1], `O=C(N[C@H](c1ccccc1)c1ccc(C2CC2)c(F)n1)[C@@H]1C[C@@H](F)CN1C(=O)Cn1cnc2ccccc21` [US11814367, Compound 716] showed a half-maximal inhibitory concentration (IC50) of 2.16 µM.
Molecule `COc1nc(CC(=O)N2C[C@H](F)C[C@H]2C(=O)N[C@@H](c2ccccc2)c2ccc(C(C)C)c(F)n2)nn1C` [US11814367, Compound 800] had a half-maximal inhibitory concentration (IC50) in experiment [1] of 0.009 µM.
Take `CC(C)c1ccc([C@@H](NC(=O)[C@@H]2C[C@@H](F)CN2C(=O)COC(=O)N(C)C)c2ccccc2)nc1` [US11814367, Compound 251]: the values for the half-inhibitory concentration (IC50) in experiment [1] and in experiment [2] were 0.053 µM and more than 100 µM, respectively.
The molecule `CC(C)c1ccc([C@@H](NC(=O)[C@@H]2C[C@@H](F)CN2C(=O)Cc2nc(C(F)(F)F)co2)c2ccccc2)nc1F` [US11814367, Compound 801] gave a half-maximal inhibitory concentration (IC50) in experiment [1] of 0.024 µM.
The same measure, in the same setting: under `CC(C)c1ccc([C@@H](NC(=O)[C@@H]2C[C@@H](F)CN2C(=O)c2ccc3c(cnn3C)c2)c2ccccc2)cc1` [US11814367, Compound 702] stands 1.26 µM; under `CC(=O)N1C[C@H](F)C[C@H]1C(=O)NC(c1ccc2cnn(C)c2c1)c1ccc(C(C)C)c(F)n1` (single isomer, unassigned) [US11814367, Compound 635], 0.082 µM.
Take `CC(=O)N1Cc2nccnc2CC1C(=O)N1C[C@H](F)C[C@H]1C(=O)N[C@@H](c1ccccc1)c1ccc(C(C)C)cc1` (some centres not stated) [US11814367, Compound 167]: the 50% inhibitory concentration (IC50) in experiment [1] was 0.116 µM; in experiment [2], more than 100 µM.
The molecule `CC(=O)N1C[C@H](F)C[C@H]1C(=O)NC(c1ccc2cn(C)nc2c1)c1ccc(C(C)C)c(F)n1` (single isomer, unassigned) [US11814367, Compound 636] returned a 50% inhibitory concentration (IC50) in experiment [1] of 0.071 µM.
In turn, `CC(=O)N1C[C@H](F)C[C@H]1C(=O)NC(c1ccc2cn[nH]c2c1)c1ccc(C2CC2)c(F)n1` (single isomer, unassigned) [US11814367, Compound 637] returned an IC50 in experiment [1] of 0.453 µM.
With `CC(C)c1ccc([C@@H](NC(=O)[C@@H]2C[C@@H](F)CN2C(=O)CC2COC2)c2ccccc2)cc1` [US11814367, Compound 218], the half-inhibitory concentration (IC50) is 0.293 µM in experiment [1] and more than 100 µM in experiment [2].
With `CC(=O)N1C[C@H](F)C[C@H]1C(=O)NC(c1ccccc1)c1ccc(C2CCC2)c(F)c1` (single isomer, unassigned) [US11814367, Compound 660], the IC50 is 0.309 µM in experiment [1] and more than 100 µM in experiment [2].
For `NC(=O)NCC(=O)N1C[C@H](F)C[C@H]1C(=O)N[C@@H](c1ccccc1)c1ccc(C2CC2)c(F)n1` [US11814367, Compound 302] the same measures were 0.067 µM and more than 100 µM.
`CC(=O)N1C[C@H](F)C[C@H]1C(=O)NC(c1cccc(-c2cc(C)nn2C)c1)c1ccc(C(C)C)c(F)n1` (single isomer, unassigned) [US11814367, Compound 697]: 1.78 µM corresponded to half-maximal inhibition in experiment [1] (IC50).
Still for that read-out and setting: under `COc1cccc(C(NC(=O)[C@@H]2C[C@@H](F)CN2C(C)=O)c2ccc(C(C)C)c(F)n2)c1` (single isomer, unassigned) [US11814367, Compound 654] stands 0.252 µM.
Consider `CC(C)c1ccc([C@@H](NC(=O)[C@@H]2C[C@@H](F)CN2C(=O)CNC(=O)N(C)C)c2ccccc2)cc1F` [US11814367, Compound 361], for which the values for the half-inhibitory concentration (IC50) in experiment [1] and in experiment [2] were 0.01 µM and more than 100 µM, respectively.
For `CC(C)c1ccc([C@@H](NC(=O)[C@@H]2C[C@@H](F)CN2C(=O)Cn2cc(N3CCC3)nn2)c2ccccc2)nc1F` [US11814367, Compound 787], the values for the half-inhibitory concentration (IC50) in experiment [1] and in experiment [2] were 0.007 µM and more than 100 µM, respectively.
Regarding `CC(=O)N1C[C@H](F)C[C@H]1C(=O)NC(c1ccc2cn[nH]c2c1)c1ccc(C(C)C)c(F)n1` (single isomer, unassigned) [US11814367, Compound 634], in experiment [1], the IC50 came out at 0.043 µM.
Take `O=C(N[C@@H](c1ccccc1)c1ccc(C2CC2)c(F)n1)[C@@H]1C[C@@H](F)CN1C(=O)CNC(=O)N1CCC1` [US11814367, Compound 305]: in experiment [1], it took 0.024 µM to reach half-maximal inhibition (IC50).
